From patent US5776685A, “Protein kinase C assay” (Joslin Diabetes Center, priority 1996, dated 1998)
Entries after “also recorded” stand apart in the source; their conditions may differ.

How the values were obtained:
[1] = tested on: Saccharomyces cerevisiae strain 334 expressing bovine PKC alpha; assay: 45Ca2+ uptake into yeast cells expressing PKC alpha forms; assay type: cell-based; conditions: for Ca2+ uptake after PMA stimulation over the control cell background: 1 μM PMA; for increase in Ca^2+ uptake (basal): without PMA stimulation, versus control cells
Experimental: FIG. 5 is a graph of the modulation of extracellular Ca2+uptake by PKC alpha wild type and mutants.
^45 Ca^2 + uptake. Expressing yeast cells after 16 h in 2% galactose medium were washed with PBS when reaching 0.5 O.D.600. 10^7 cells were suspended in 100 μl of 50 mM MES pH 6.5, 5 mM MgSO4 and incubated with 1 μM PMA for 1 h at 30 degrees C under shaking on 96-well plates. Subsequently uptake of 2 μCi 45 Ca2+ at 300 μM CaCl2 was measured for 2 hours. Cells were rapidly transferred to Multiscreen filtration microtiter plates (Millipore) and washed four times with 200 μl of 10 mM MES, 10 mM Tris, 35 mM CaC12 pH 6.0. Filters were dried and cell-associated radioactivity was determined by liquid scintillation spectroscopy.
Ca^2+ influx has been reported in response to PKC activation in a variety of eukaryotic cells such as Nitella syncarpa plasmalemma, Aplysia bag cell neurons, rat ventricular myocytes and rat pituitary cells. To test whether the measured catalytic activities and the yeast phenotype correlate with other biological responses mediated by PKC, ^45 Ca^2+ uptake into expressing cells was determined after PMA stimulation. […] These responses are consistent with the catalytic activities and phenotypic responses of the mutants: elevated basal activity of ND153, full and reduced phorbol ester-stimulated activity of normal PKC alpha and D172-225, respectively, and lack of activity for CD26.

bovine PKC alpha [2] = assay: [3H]PDBu binding to yeast spheroplasts expressing PKC alpha forms; conditions: 14 nM [3H]PDBu
Experimental: FIG. 3 is a graph of phorbol ester binding to cells expressing PKC alpha wild type and mutant proteins.
Phorbol ester binding. About 6×10^8 expressing cells were washed twice in 10 mM K-phosphate buffer pH 7.0, 20 mM EDTA, once in 1M sorbitol and were resuspended in 10 ml 10 mM K-phosphate buffer pH 7.0, 1.1M sorbitol, 0.5 mM CaC12. Cells were incubated with 1 U glusulase (beta-glucuronidase/arylsulfatase from Helix pomatia, Boehringer Mannheim) for about 1 hour under shaking at 30 degrees C to remove the cell wall until test cell suspensions cleared in H2 O due to cell lysis.
Both were about 13-fold elevated over background levels of control cells. Similar findings have been reported for PKC overexpression in transfected mammalian fibroblasts. […] The internal deletion of aa 172-225 led to phorbol ester binding levels reduced by 60% compared to normal PKC alpha, a potential consequence of the removal of parts of the C2 domain.

[3] = tested on: Saccharomyces cerevisiae strain 334 expressing bovine PKC alpha; assay: Cell doubling time of yeast cultures expressing PKC alpha wild type and mutant cDNAs; assay type: cell-based; conditions: 2% galactose; for average cell doubling time: synthetic minimal medium, CD26 and ND153 values phorbol ester-independent
Experimental: FIG. 2 is a graph of cell doubling time of yeast cultures expressing PKC alpha wild type and mutant cDNAs. Freshly saturated cultures expressing control plasmids (Cont.), normal PKC alpha (PKCa) or deletion mutants D172-225, ND153 or CD26 were diluted to low cell densities. Cell growth was followed on a roller at 30 degrees C to measurable cell densities of the logarithmic growth phase at 0.2-0.6 O.D. 600. […] Average doubling times were calculated.
Yeast strains and culture conditions. PKC expression plasmids and YEp51 or YEp52 as controls were introduced into Saccharomyces cerevisiae strain 334 [MAT alpha, pep 4-3, prb1-122, ura 3-52; leu2-3, 112, reg1-501, gal1]by lithium acetate transformation See e.g., Ito et al. 1983, J. Bacterial. 153: 163. Cells were routinely grown at 30 degrees C on a culture roller or shaker in liquid culture or on 1.5% agar plates. The synthetic medium contained 2% glucose and was leucine-free to select for stable propagation of the expression plasmids. Expressing yeast colonies were identified phenotypically by replica plating on medium containing or lacking PMA. Phenol extracts of crude cell lysates were prepared to re-transform Escherichia coli DH5 alpha. PKC mutants were characterized by DNA sequencing and defined plasmids were re-introduces into S. cerevisiae 334. These strains were used in all experiments shown. 50 ml cultures were routinely inoculated from freshly saturated cultures and grown for 16 h to an optical density of 0.4 at O.D.600.
Cell doubling times were measured by O.D.600 reading of liquid cultures in the presence of 2% galactose as shown in FIG. 2 to test whether they correlate with the specific phenotypes (colony size) caused by normal mutant PKC alpha. […] A normal 4 hours doubling time was measured for all constructs in the absence of galactose.

bovine PKC alpha [4] = assay: PKC catalytic activity in vitro (phosphorylation of [ser25]PKC19-31 in detergent cell extracts); assay type: biochemical; conditions: for PMA and Ca^2+ stimulated mutant PKC activity: Ca^2+: Ca^2+ stimulation of in vitro catalytic activity; for stimulation of catalytic activity by phorbol ester: PMA + phosphatidylserine; for PMA and Ca^2+ stimulated mutant PKC activity: PMA: PMA stimulation, common symbol for in vitro catalytic activity and PMA-mediated increase of cell doubling time; for PMA and Ca^2+ stimulated mutant PKC activity: -: no stimulus (basal), common symbol for in vitro catalytic activity and cell doubling time response
Experimental: FIG. 4 is a graph which compares PKC mutant and wild type catalytic activities in vitro. […] Catalytic activity was stimulated by combinations of phosphatidylserine (PS), the phorbol ester PMA and calcium ions (Ca^2+). PS, open; PMA+PS, solid; Ca^2+ +PS, diagonally striped.
Cell lysis. About 6×10^8 expressing cells were washed in PBS and were resuspended in 1 ml lysis buffer containing 1% Triton X100, 50 mM Hepes pH 7.4, 15-mM NaC1, 5 mM EDTA, 5 mM EGTA, 10 μg/ml pepstatin, 40 μg/ml leupeptin, 10 μg/ml aprotinin and 200 μg/ml PMSF. Cell suspensions mixed with the same volume of acid washed glass beads (450-500 μm) were lysed mechanically by six 30 second vortexing steps interrupted by cooling on ice for at least 30 second in 50 ml screw cap polypropylene tubes. The lysate was cleared by 4,000 g centrifugation for 15 minutes at 4 degrees C and stored at […] for up to several weeks.
PKC catalytic activity. […] Phosphatidylserine in chloroform, with or without PMA was evaporated under N2 to dryness, resuspended in 20 mM Tris pH 7.5, mixed and sonicated at 4 degrees C for 45 seconds before use. To terminate the reaction the sample was placed on phosphocellulose paper (Whatman P81) which was repeatedly washed in 75 mM phosphoric acid. Bound radioactivity was determined by liquid scintillation spectroscopy.

[5] = tested on: Saccharomyces cerevisiae strain 334 expressing bovine PKC alpha; assay: Phenotypic screen of PKC alpha mutant activity by yeast colony size on agar plates; assay type: cell-based; conditions: 2% galactose; for yeast colony size: 3 days
Experimental: The phenotypic screen of PKC alpha mutant activity by yeast colony size was performed as follows. […] Plates (9 cm diameter) were photograph after 3 days.
Galactose stimulation of cDNA expression resulted for some PKC forms in specific, decreased yeast colony sizes which were either dependent on or independent of phorbol ester activation after 3 days. […] Microscopically small colonies expressing ND153 grew to visible sizes with rates independently of PMA. Colonies expressing PKC alpha grew even more slowly to visible sizes during continued incubation in the presence of PMA.

rat PKC β-1 = biological target: T1, rat PKC β-1 (Rattus norvegicus, UniProt P68403); assay: PKC beta-1 enzymatic activity in detergent cell extracts; assay type: biochemical; conditions: phospholipid dependent
T1 construct: we inserted the complete protein coding cDNA of rat PKC β-1; made in house; host or cells: Saccharomyces cerevisiae strain 334, YEp51 with GAL10 promoter; crude detergent cell extract
T1 sequence (P68403 2-671): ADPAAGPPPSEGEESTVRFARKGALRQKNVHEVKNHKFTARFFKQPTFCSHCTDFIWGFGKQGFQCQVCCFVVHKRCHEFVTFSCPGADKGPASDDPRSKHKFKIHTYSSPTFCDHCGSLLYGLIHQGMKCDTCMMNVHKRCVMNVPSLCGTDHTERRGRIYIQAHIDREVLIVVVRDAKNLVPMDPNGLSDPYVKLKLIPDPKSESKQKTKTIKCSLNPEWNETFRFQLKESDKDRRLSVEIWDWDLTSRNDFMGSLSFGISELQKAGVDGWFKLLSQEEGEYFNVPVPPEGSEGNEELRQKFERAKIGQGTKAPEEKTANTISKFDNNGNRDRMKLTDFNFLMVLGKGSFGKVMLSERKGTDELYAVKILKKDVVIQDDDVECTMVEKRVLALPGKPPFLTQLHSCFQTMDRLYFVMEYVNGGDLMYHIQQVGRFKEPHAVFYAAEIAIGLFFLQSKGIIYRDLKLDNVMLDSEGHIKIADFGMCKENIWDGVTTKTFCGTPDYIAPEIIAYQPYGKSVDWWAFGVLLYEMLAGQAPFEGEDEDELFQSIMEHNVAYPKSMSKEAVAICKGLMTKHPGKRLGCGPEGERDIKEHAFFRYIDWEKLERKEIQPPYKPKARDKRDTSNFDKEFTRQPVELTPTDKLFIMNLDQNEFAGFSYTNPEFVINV
Experimental: Duplicate measurements have routinely been made in our experiments. […] The methods described here are for the bovine PKC alpha experiments. The same or similar methods were used in the rat PKC beta-1 experiments.
PKC catalytic activity. PKC catalytic activity was measured as described in Hu et al., 1990, J. Biol. Chem. 265: 13864 by phosphorylation of 3 μg of the specific substrate peptide […] (Seq. ID No. 7) (Gibco, BRL) in the presence of 5 μCi [gamma-32P]ATP (3000 Ci/mmol) in 125 μl of 5-fold diluted cell extract for 30 min. at 25 degrees C with combinations of 160 μg/ml phosphatidylserine (Avanti Polar Lipids, Inc.), 1 μm PMA and 5 mM CaCl2. […] Bound radioactivity was determined by liquid scintillation spectroscopy.
To compare the enzymatic activity of normal and truncated PKC forms, phosphorylation of the PKC-specific substrate [ser^25 ]PKC19-31 a derivative of the pseudosubstrate sequence was measured in detergent cell extracts in response to combinations of phosphatidylserine, the phorbol ester PMA (phorbol-12-myristate-13-acetate), and Ca^2+. In the presence of phosphatidylserine alone only a background level of phosphorylation was detected in all samples including control cells which likely represents the activity of other endogenous yeast protein kinases.

## ND153: PKCa deletion of aa 1-153
[1]
  Ca2+ uptake after PMA stimulation over the control cell background: unaffected by phorbol ester
  increase in Ca^2+ uptake (basal): ~3 fold
Bovine PKC alpha [2]
  [3H]PDBu binding level over background levels of control cells: virtually background
[3]; absence of phorbol ester
  average cell doubling time: 12 h
Bovine PKC alpha [4]
  PMA and Ca^2+ stimulated mutant PKC activity: Ca^2+: ++
  stimulation of catalytic activity by phorbol ester: PMA-unresponsive
  PMA and Ca^2+ stimulated mutant PKC activity: PMA: +
  PMA and Ca^2+ stimulated mutant PKC activity: -: +
  catalytic activity in the presence of phosphatidylserine alone (elevated level): 10 fold
[5]; independent of phorbol ester
  yeast colony size / phenotype: microscopically small colonies independent of phorbol ester activation

## PKC alpha: bovine protein kinase C alpha, full length, expressed in yeast
[1]
  Ca2+ uptake after PMA stimulation over the control cell background: up to 4 fold
  increase in Ca^2+ uptake (basal): 1.4 fold
Bovine PKC alpha [2]
  [3H]PDBu binding level over background levels of control cells: about 13 fold
[3]; absence of phorbol ester
  increase in the cell doubling time: 50%
  average cell doubling time: 6 h
[3]; phorbol ester stimulation (1 μM PMA)
  cell doubling time: 16 h
Bovine PKC alpha [4]
  PMA and Ca^2+ stimulated mutant PKC activity: Ca^2+: ++
  stimulation of catalytic activity by phorbol ester: more than 20 fold
  PMA and Ca^2+ stimulated mutant PKC activity: PMA: ++
  PMA and Ca^2+ stimulated mutant PKC activity: -: -
  catalytic activity in the presence of phosphatidylserine alone (elevated level): no catalytic activity was detected
[5]; absence of phorbol ester
  yeast colony size: reduced colony sizes
[5]; phorbol ester activation (1 uM PMA)
  yeast colony size: substantially reduced yeast colony size; also recorded: substantially further decreased to microscopically small sizes

## diacylglycerol
Rat PKC β-1
  stimulation of PKC β-1 catalytic activity: stimulated by diacylglycerol similar to PMA
